Source: ChEMBL document CHEMBL5143608, “Peptide-based long-acting co-agonists of GLP-1 and cholecystokinin 1 receptors as novel anti-diabesity agents” (Eur J Med Chem, 2022)
Activity calls are given as the source filed them. *1 amine or outer side, *2 acyl side, *3 side chain or, on linkers, in order; H or OH if unused. Where a SMILES comes first, the peptide text is derived from it. Side-chain parts run from the residue outwards. [ ]: non-standard residue; d: D form. The star is where a group is joined. γGlu = O=C(O)[C@H](CCC(=O)[*:2])N[*:1]; Palmitoyl = CCCCCCCCCCCCCCCC(=O)*; Aib = CC(C)(N)C(=O)O

Columns and labels:
[1] = tested on: Mus musculus; assay: Anti-diabesity activity against db/db mouse assessed as increase in insulin sensitivity by measuring reduction in plasma insulin level at 25 nmol/kg, sc administered every 2 days for 12 weeks by ELISA; format: functional, organism-based
[2] = tested on: Mus musculus; assay: Anti-diabesity activity in DIO C57BL/6 mouse assessed as reduction in body weight at 100 nmol/kg, sc administered every 2 days for 10 days; format: functional; conditions: time 10.0 day
[3] = tested on: Mus musculus; assay: Anti-diabesity activity against db/db mouse assessed as improvement in glucose tolerance level at 25 nmol/kg, sc administered every 2 days for 6 weeks followed by saline treatment for 6 weeks and measured during first 6 weeks by OGTT; format: functional, organism-based
[4] = tested on: Mus musculus; assay: Anti-diabesity activity against db/db mouse assessed as reduction in body weight at 25 nmol/kg, sc administered every 2 days for 3 weeks; format: functional, organism-based; conditions: time 21.0 day
[5] = tested on: Mus musculus; assay: Anti-diabesity activity against DIO C57BL/6 mouse assessed as reduction in cumulative food intake at 25 nmol/kg, sc administered every 2 days for 3 weeks; format: functional, organism-based; conditions: time 21.0 day
[6] = tested on: Mus musculus; assay: Anti-diabesity activity against db/db mouse assessed as reduction in HbA1c level at 25 nmol/kg, sc administered every 2 days for 6 weeks followed by saline treatment for 6 weeks and measured during second 6 weeks; format: functional, organism-based
[7] = tested on: Mus musculus; assay: Anti-diabesity activity against db/db mouse assessed as reduction in cumulative food intake at 25 nmol/kg, sc administered every 2 days for 3 weeks; format: functional, organism-based; conditions: time 21.0 day
[8] = tested on: Mus musculus; assay: Anti-diabesity activity against DIO C57BL/6 mouse assessed as improvement in glucose tolerance at 25 nmol/kg, sc administered every 2 days for 3 weeks by OGTT; format: functional, organism-based; conditions: time 21.0 day
[9] = tested on: Mus musculus; assay: Anti-diabesity activity against DIO C57BL/6 mouse assessed as reduction in fasted blood glucose level at 25 nmol/kg, sc administered every 2 days for 3 weeks; format: functional, organism-based; conditions: time 21.0 day
[10] = tested on: Mus musculus; assay: Anti-diabesity activity against db/db mouse assessed as increase in islet number at 25 nmol/kg, sc administered every 2 days for 3 weeks by H and E staining based analysis; format: functional, organism-based; conditions: time 21.0 day
[11] = tested on: Mus musculus; assay: Anti-diabesity activity against db/db mouse assessed as improvement in glucose tolerance at 25 nmol/kg, sc administered every 2 days for 12 weeks by OGTT; format: functional, organism-based
[12] = tested on: Mus musculus; assay: Anti-diabesity activity against db/db mouse assessed as reduction in fasting blood glucose level at 25 nmol/kg, sc administered every 2 days for 12 weeks; format: functional, organism-based
[13] = tested on: Mus musculus; assay: Anti-diabesity activity against db/db mouse assessed as reduction in HbA1c level at 25 nmol/kg, sc administered every 2 days for 12 weeks; format: functional, organism-based
[14] = tested on: Mus musculus; assay: Insulinotropic activity in db/db mouse assessed as elevation of plasma insulin level at 25 nmol/kg, ip administered 30 min before oral glucose administration and measured upto 60 mins by ELISA; format: functional, organism-based; conditions: time <= 90.0 min
[15] = tested on: Mus musculus; assay: Hypoglycemic activity in db/db mouse assessed as reduction in glucose excursion at 25 nmol/kg, ip administered 30 min before oral glucose administration and measured upto 120 mins by OGTT; format: functional, organism-based
[16] = tested on: Mus musculus; assay: Anti-diabesity activity in DIO C57BL/6 mouse assessed as reduction in body weight at 10 nmol/kg, sc administered every 2 days for 10 days; format: functional; conditions: time 10.0 day
[17] = tested on: Mus musculus; assay: Anti-diabesity activity against db/db mouse assessed as reduction in fasting blood glucose level at 25 nmol/kg, sc administered every 2 days for 6 weeks followed by saline treatment for 6 weeks and measured during first 6 weeks; format: functional, organism-based
[18] = tested on: Mus musculus; assay: Anti-diabesity activity against db/db mouse assessed as improvement in glucose tolerance at 25 nmol/kg, sc administered every 2 days for 3 weeks by OGTT; format: functional, organism-based; conditions: time 21.0 day
[19] = tested on: Mus musculus; assay: Anti-diabesity activity against db/db mouse assessed as reduction in HbA1c level at 25 nmol/kg, sc administered every 2 days and measured on day 43; format: functional, organism-based; conditions: time 43.0 day
[20] = tested on: Mus musculus; assay: Anti-diabesity activity against DIO C57BL/6 mouse assessed as reduction in triglycerides level in serum at 25 nmol/kg, sc administered every 2 days for 3 weeks; format: functional, organism-based; conditions: time 21.0 day
[21] = tested on: Mus musculus; assay: Anti-diabesity activity against db/db mouse assessed as improvement in glucose tolerance level at 25 nmol/kg, sc administered every 2 days for 6 weeks followed by saline treatment for 6 weeks and measured during second 6 weeks by OGTT; format: functional, organism-based
[22] = tested on: Mus musculus; assay: Anti-diabesity activity against db/db mouse assessed as reduction in fasted blood glucose level at 25 nmol/kg, sc administered every 2 days for 3 weeks; format: functional, organism-based; conditions: time 21.0 day
[23] = tested on: Mus musculus; assay: Anti-diabesity activity against db/db mouse assessed as reduction in HbA1c level at 25 nmol/kg, sc administered every 2 days for 6 weeks followed by saline treatment for 6 weeks and measured during first 6 weeks; format: functional, organism-based
[24] = tested on: Mus musculus; assay: Hypoglycemic activity in db/db mouse assessed as improvement in glucose tolerance at 25 nmol/kg, ip administered 30 min before oral glucose administration and measured upto 120 mins by OGTT; format: functional, organism-based
[25] = tested on: Mus musculus; assay: Anti-diabesity activity against db/db mouse assessed as increase in IOD of insulin in pancreas at 25 nmol/kg, sc administered every 2 days for 12 weeks by immunohistochemistry; format: functional, organism-based
[26] = tested on: Mus musculus; assay: Anti-diabesity activity in DIO C57BL/6 mouse assessed as improvement in insulin sensitivity at 25 nmol/kg, sc administered every 2 days for 10 days by insulin tolerance test; format: functional, organism-based; conditions: time 10.0 day
[27] = tested on: Mus musculus; assay: Anti-diabesity activity against db/db mouse assessed as enhanced islets insulin content at 25 nmol/kg, sc administered every 2 days for 3 weeks by immunohistochemistry staining; format: functional, organism-based; conditions: time 21.0 day
[28] = tested on: Mus musculus; assay: Anti-diabesity activity against DIO C57BL/6 mouse assessed as reduction in cholesterol level in serum at 25 nmol/kg, sc administered every 2 days for 3 weeks; format: functional, organism-based; conditions: time 21.0 day
[29] = tested on: Mus musculus; assay: Anti-diabesity activity against db/db mouse assessed as increase in islet area at 25 nmol/kg, sc administered every 2 days for 3 weeks by H and E staining based analysis; format: functional, organism-based; conditions: time 21.0 day
[30] = tested on: Mus musculus; assay: Anti-diabesity activity against db/db mouse assessed as HbA1c level at 25 nmol/kg, sc administered every 2 days for 3 weeks; format: functional, organism-based; conditions: time 21.0 day
[31] = tested on: BRIN-BD11; assay: Insulinotropic activity in rat BRIN-BD11 cells assessed as increase in insulin secretion incubated for 20 mins by radioimmunoassay; format: functional, cell-based; conditions: DDE = dose-dependent effect
[32] = tested on: Mus musculus; assay: Anti-diabesity activity against db/db mouse assessed as increase in pancreas mass at 25 nmol/kg, sc administered every 2 days for 12 weeks; format: functional, organism-based
[33] = tested on: Mus musculus; assay: Anti-diabesity activity against db/db mouse assessed as reduction in fasting blood glucose level at 25 nmol/kg, sc administered every 2 days for 6 weeks followed by saline treatment for 6 weeks and measured during second 6 weeks; format: functional, organism-based
[34] = tested on: Mus musculus; assay: Anti-diabesity activity against DIO C57BL/6 mouse assessed as reduction in body weight at 25 nmol/kg, sc administered every 2 days for 3 weeks; format: functional; conditions: time 21.0 day
[35] = tested on: Mus musculus; assay: Anti-diabesity activity in DIO C57BL/6 mouse assessed as reduction in body weight at 25 nmol/kg, sc administered every 2 days for 10 days; format: functional; conditions: time 10.0 day
[36] = tested on: Mus musculus; assay: Anti-diabesity activity against DIO C57BL/6 mouse assessed as decrease in fat mass at 25 nmol/kg, sc administered every 2 days for 3 weeks; format: functional, organism-based; conditions: time 21.0 day
[37] = tested on: Mus musculus; assay: Anorectic activity in ICR mouse assessed as decrease in food intake at 25 nmol/kg, ip and measured after 24 hrs; format: functional, organism-based
[38] = tested on: Mus musculus; assay: Anti-diabesity activity against high fat diet-induced DIO C57BL/6 mouse model assessed as decrease in body weight at 25 nmol/kg, sc administered for 2 weeks; format: functional; conditions: C57BL/6, 336 h, time 14 day
[39] = tested on: Mus musculus; assay: Anti-diabesity activity against high fat diet-induced DIO C57BL/6 mouse model assessed as reduction in food intake at 25 nmol/kg, sc administered for 2 weeks; format: functional, organism-based; conditions: time 14.0 day
[40] = tested on: Mus musculus; assay: Hypoglycemic activity in ICR mouse assessed as improvement in glucose tolerance at 25 nmol/kg, ip administered 30 min before oral glucose administration and measured upto 120 mins by OGTT; format: functional, organism-based
[41] = tested on: Mus musculus; assay: Anorectic activity in ICR mouse assessed as decrease in food intake at 25 nmol/kg, ip and measured after 9 hrs; format: functional, organism-based
[42] = tested on: Mus musculus; assay: Anti-diabesity activity against high fat diet-induced DIO C57BL/6 mouse model assessed as reduction in fat mass accumulation at 25 nmol/kg, sc administered for 2 weeks and measured on day 15 by NMR analysis; format: functional, organism-based; conditions: time 15.0 day

SEMAGLUTIDE
12.5%: inhibition [35]
17.3%: inhibition [2]
8.2%: inhibition [16]
14.9%: inhibition [34]
active: Activity [1] | Activity [3] | Activity [4] | Activity [5] | Activity [6] | Activity [7] | Activity [8] | Activity [9] | Activity [10] | Activity [11] | Activity [12] | Activity [13] | Activity [14] | Activity [15] | Activity [17] | Activity [18] | Activity [19] | Activity [20] | Activity [21] | Activity [22] | Activity [23] | Activity [24] | Activity [25] | Activity [26] | Activity [27] | Activity [28] | Activity [29] | Activity [30] | Activity [31] Dde | Activity [32] | Activity [33] | Activity [36]

CCCCCCCCCCCCCCCC(=O)N[C@@H](CCC(=O)NCCCC[C@H](NC(=O)[C@H](C)NC(=O)[C@H](C)NC(=O)[C@H](CCC(=O)O)NC(=O)[C@H](CCC(=O)O)NC(=O)[C@H](CCC(=O)O)NC(=O)[C@H](CC(C)C)NC(=O)[C@@H](NC(=O)[C@H](CCC(=O)O)NC(=O)[C@@H](NC(=O)[C@@H](NC(=O)[C@H](CC(=O)O)NC(=O)[C@H](CC(N)=O)NC(=O)[C@@H](NC(=O)[C@H](Cc1ccc(O)cc1)NC(=O)[C@@H](NC(=O)CNC(=O)[C@H](CCC(=O)O)NC(=O)C(C)(C)NC(=O)[C@@H](N)Cc1cnc[nH]1)[C@@H](C)O)[C@@H](C)O)C(C)C)[C@@H](C)O)[C@@H](C)O)C(=O)N[C@@H](CCC(=O)O)C(=O)N[C@@H](Cc1ccccc1)C(=O)N[C@H](C(=O)N[C@@H](CCC(=O)O)C(=O)N[C@@H](Cc1c[nH]c2ccccc12)C(=O)N[C@@H](CC(C)C)C(=O)N[C@H](C(=O)N[C@@H](CCCCN)C(=O)NCC(=O)N[C@@H](CCCCN)C(N)=O)[C@@H](C)CC)[C@@H](C)CC)C(=O)O (H-H[Aib]EGTYTNDVTETLEEEAAK([γGlu-Palmitoyl])EFIEWLIKGK-NH2)
active: Activity [37] | Activity [39] | Activity [40] | Activity [41] | Activity [42]
12.1%: inhibition in vivo at 0.025 µmol/kg [38]
